The source of these data is patent US7491819B1 (priority 2004, dated 2009).

pIC50: −log10 of the molar value.

This experiment has as its target T1, HIV-integrase (Human immunodeficiency virus type 1 group M subtype B, UniProt P12497).
T1 construct: Recombinant integrase (0.26 ng) was incubated with the beads
The experiment in a line: HIV-Integrase Inhibition Activity (SPA bead strand-transfer assay). The class given is biochemical. Particulars: Table 1; read-out: Activity (HIV-integrase inhibition, IC50 class). The method, boiled down:
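Strand-transfer read-out: CPM from P33-labelled target DNA (0.1 fmol) joined to bead-bound biotin substrate DNA (5 pmole), with EDTA stop at 10 mM final. Integrase (0.26 ng) prebound to streptavidin SPA beads 90 min, 37° C, and washed before adding inhibitor.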
For `Cc1cccc(-c2ccccc2CNC(=O)c2nc3n(c(=O)c2O)CCOC3(C)C)c1` [Example 163, Pyrimido[2,1-c][1,4]oxazine-2-carboxamide, 4,6,7,9-tetrahydro-3-hydroxy-9,9-dimethyl-N-[(3′-methyl[1,1′-biphenyl]-2-yl)methyl]-4-oxo-], the pIC50 is 7.00 to 8.70.

Regarding `CC1(C)OCCn2c1nc(C(=O)NCc1ccc(-n3nccn3)cc1F)c(O)c2=O` [Example 58, Pyrimido[2,1-c][1,4]oxazine-2-carboxamide, N-[[2-fluoro-4-(2H-1,2,3-triazol-2-yl)phenyl]methyl]-4,6,7,9-tetrahydro-3-hydroxy-9,9-dimethyl-4-oxo-], the pIC50 was 7.00 to 8.70.

For the molecule `CN1CCN(C(=O)c2ccc(-c3ccccc3CNC(=O)c3nc4n(c(=O)c3O)CCOC4(C)C)cc2)CC1` [Example 196, Pyrimido[2,1-c][1,4]oxazine-2-carboxamide, 4,6,7,9-tetrahydro-3-hydroxy-9,9-dimethyl-N-[[4′-[(4-methyl-1-piperazinyl)carbonyl][1,1′-biphenyl]-2-yl]methyl]-4-oxo-], the pIC50 was 7.00 to 8.70.

`CC1(C)OCCn2c1nc(C(=O)NCc1cccc(F)c1N1CCCCS1(=O)=O)c(O)c2=O` [Example 55, Pyrimido[2,1-c][1,4]oxazine-2-carboxamide, N-[[3-fluoro-2-(tetrahydro-1,1-dioxido-2H-1,2-thiazin-2-yl)phenyl]methyl]-4,6,7,9-tetrahydro-3-hydroxy-9,9-dimethyl-4-oxo-]: the pIC50 was 7.00 to 8.70.

Regarding `CCOc1ccccc1CNC(=O)c1nc2n(c(=O)c1O)CCOC2(C)C` [Example 243, Pyrimido[2,1-c][1,4]oxazine-2-carboxamide, N-[(2-ethoxyphenyl)methyl]-4,6,7,9-tetrahydro-3-hydroxy-9,9-dimethyl-4-oxo-], the pIC50 was 7.00 to 8.70.

Turning to `Cc1cnc(-c2cc(F)ccc2CNC(=O)c2nc3n(c(=O)c2O)CCOC3(C)C)o1` [Example 86, Pyrimido[2,1-c][1,4]oxazine-2-carboxamide, N-[[4-fluoro-2-(5-methyl-2-oxazolyl)phenyl]methyl]-4,6,7,9-tetrahydro-3-hydroxy-9,9-dimethyl-4-oxo-], the pIC50 is 7.00 to 8.70.

As to `Cc1c(Cl)cccc1CNC(=O)c1nc2n(c(=O)c1O)CCOC2(C)C` [Example 236, Pyrimido[2,1-c][1,4]oxazine-2-carboxamide, N-[(3-chloro-2-methylphenyl)methyl]-4,6,7,9-tetrahydro-3-hydroxy-9,9-dimethyl-4-oxo-], the negative logarithm of the IC50 (pIC50) was 7.00 to 8.70.

On to `Cc1ccc(CNC(=O)c2nc3n(c(=O)c2O)CCOC3(C)C)c(C)c1` [Example 37, Pyrimido[2,1-c][1,4]oxazine-2-carboxamide, N-[(2,4-dimethylphenyl)methyl]-4,6,7,9-tetrahydro-3-hydroxy-9,9-dimethyl-4-oxo-], for which the pIC50 is 7.00 to 8.70.

For the molecule `Cc1cnc(CNC(=O)c2nc3n(c(=O)c2O)CCOC3(C)C)cn1` [Example 142, Pyrimido[2,1-c][1,4]oxazine-2-carboxamide, 4,6,7,9-tetrahydro-3-hydroxy-9,9-dimethyl-N-[(5-methylpyrazinyl)methyl]-4-oxo-], the pIC50 is 7.00 to 8.70.

Take `CC1(C)OCCn2c1nc(C(=O)NCc1ccc(N3CCOCC3)cc1)c(O)c2=O` [Example 253, Pyrimido[2,1-c][1,4]oxazine-2-carboxamide, 4,6,7,9-tetrahydro-3-hydroxy-9,9-dimethyl-N-[[4-(4-morpholinyl)phenyl]methyl]-4-oxo-]: the pIC50 was less than 6.00.

`CN(C)c1ccc(CNC(=O)c2nc3n(c(=O)c2O)CCOC3(C)C)cc1` [Example 257, Pyrimido[2,1-c][1,4]oxazine-2-carboxamide, N-[[4-(dimethylamino)phenyl]methyl]-4,6,7,9-tetrahydro-3-hydroxy-9,9-dimethyl-4-oxo-]: the pIC50 is 7.00 to 8.70.

Regarding `CC1(C)OCCn2c1nc(C(=O)NCc1ccc(F)cc1N1CCOC1=O)c(O)c2=O` [Example 127, N-(4-Fluoro-2-(2-oxooxazolidin-3-yl)benzyl)-3-hydroxy-9,9-dimethyl-4-oxo-4,6,7,9-tetrahydropyrimido[2,1-c][1,4]oxazine-2-carboxamide], the pIC50 is 7.00 to 8.70.

As to `CCc1cc(CNC(=O)c2nc3n(c(=O)c2O)CCOC3(C)C)ccc1F` [Example 247, Pyrimido[2,1-c][1,4]oxazine-2-carboxamide, N-[(3-ethyl-4-fluorophenyl)methyl]-4,6,7,9-tetrahydro-3-hydroxy-9,9-dimethyl-4-oxo-], the pIC50 was 7.00 to 8.70.

Regarding `CC1(C)OCCn2c1nc(C(=O)NCc1ccc(F)cc1-n1cnc(C(=O)NCCO)n1)c(O)c2=O` [Example 72, Pyrimido[2,1-c][1,4]oxazine-2-carboxamide, N-[[4-fluoro-2-[3-[[(2-hydroxyethyl)amino]carbonyl]-1H-1,2,4-triazol-1-yl]phenyl]methyl]-4,6,7,9-tetrahydro-3-hydroxy-9,9-dimethyl-4-oxo-], the pIC50 was 7.00 to 8.70.

Consider `CC1(C)OCCn2c1nc(C(=O)NCc1ccccc1-c1ccsc1)c(O)c2=O` [Example 179, Pyrimido[2,1-c][1,4]oxazine-2-carboxamide, 4,6,7,9-tetrahydro-3-hydroxy-9,9-dimethyl-4-oxo-N-[[2-(3-thienyl)phenyl]methyl]-], for which the pIC50 is 7.00 to 8.70.

For `CC(C)C1OCCn2c1nc(C(=O)NCc1ccc(F)cc1)c(O)c2=O` (centres unmarked) [Example 17, Pyrimido[2,1-c][1,4]oxazine-2-carboxamide, N-[(4-fluorophenyl)methyl]-4,6,7,9-tetrahydro-3-hydroxy-9-(1-methylethyl)-4-oxo-], the pIC50 is 7.00 to 8.70.

Take `CN(C)CCNC(=O)c1ncn(-c2cc(F)ccc2CNC(=O)c2nc3n(c(=O)c2O)CCOC3(C)C)n1` [Example 70, Pyrimido[2,1-c][1,4]oxazine-2-carboxamide, N-[[2-[3-[[[2-(dimethylamino)ethyl]amino]carbonyl]-1H-1,2,4-triazol-1-yl]-4-fluorophenyl]methyl]-4,6,7,9-tetrahydro-3-hydroxy-9,9-dimethyl-4-oxo-]: the pIC50 was 7.00 to 8.70.

In the case of `CC1(C)OCCn2c1nc(C(=O)NCc1ccc(F)c3ccccc13)c(O)c2=O` [Example 40, Pyrimido[2,1-c][1,4]oxazine-2-carboxamide, N-[(4-fluoro-1-naphthalenyl)methyl]-4,6,7,9-tetrahydro-3-hydroxy-9,9-dimethyl-4-oxo-], the pIC50 was 7.00 to 8.70.

As to `C[S+]([O-])c1cc(F)ccc1CNC(=O)c1nc2n(c(=O)c1O)CCOC2(C)C` (centres unmarked) [Example 102, Pyrimido[2,1-c][1,4]oxazine-2-carboxamide, N-[[4-fluoro-2-(methylsulfinyl)phenyl]methyl]-4,6,7,9-tetrahydro-3-hydroxy-9,9-dimethyl-4-oxo], the pIC50 is 7.00 to 8.70.

In the case of `CC1(C)OCCn2c1nc(C(=O)NCc1ccccc1-c1ccc(F)nc1)c(O)c2=O` [Example 151], the pIC50 was 7.00 to 8.70.

With `COc1cc(F)ccc1CNC(=O)c1nc2n(c(=O)c1O)CCOC2(C)C` [Example 41, Pyrimido[2,1-c][1,4]oxazine-2-carboxamide, N-[(4-fluoro-2-methoxyphenyl)methyl]-4,6,7,9-tetrahydro-3-hydroxy-9,9-dimethyl-4-oxo-], the pIC50 is 7.00 to 8.70.

On to `CC1(C)OCCn2c1nc(C(=O)NCc1ccc(Cl)c(Cl)c1)c(O)c2=O` [Example 221, Pyrimido[2,1-c][1,4]oxazine-2-carboxamide, N-[(3,4-dichlorophenyl)methyl]-4,6,7,9-tetrahydro-3-hydroxy-9,9-dimethyl-4-oxo-], for which the pIC50 is 7.00 to 8.70.

For `CCC1OCCn2c1nc(C(=O)NCc1ccc(F)cc1-n1cncn1)c(O)c2=O` (centres unmarked) [Example 16, Pyrimido[2,1-c][1,4]oxazine-2-carboxamide, 9-ethyl-N-[[4-fluoro-2-(1H-1,2,4-triazol-1-yl)phenyl]methyl]-4,6,7,9-tetrahydro-3-hydroxy-4-oxo-], the pIC50 is 7.00 to 8.70.

Take `Cn1ccc2c(CNC(=O)c3nc4n(c(=O)c3O)CCOC4(C)C)cccc21` [Example 279, Pyrimido[2,1-c][1,4]oxazine-2-carboxamide, 4,6,7,9-tetrahydro-3-hydroxy-9,9-dimethyl-N-[(1-methyl-1H-indol-4-yl)methyl]-4-oxo-]: the pIC50 is 7.00 to 8.70.

On to `COc1ccc(CNC(=O)c2nc3n(c(=O)c2O)CCOC3(C)C)cc1` [Example 244, Pyrimido[2,1-c][1,4]oxazine-2-carboxamide, 4,6,7,9-tetrahydro-3-hydroxy-N-[(4-methoxyphenyl)methyl]-9,9-dimethyl-4-oxo-], for which the pIC50 was 7.00 to 8.70.

`Cc1ccc(Cl)c(CNC(=O)c2nc3n(c(=O)c2O)CCOC3(C)C)c1F` [Example 274, Pyrimido[2,1-c][1,4]oxazine-2-carboxamide, N-[(6-chloro-2-fluoro-3-methylphenyl)methyl]-4,6,7,9-tetrahydro-3-hydroxy-9,9-dimethyl-4-oxo-]: the pIC50 was 7.00 to 8.70.

Take `CC1(C)OCCn2c1nc(C(=O)NCc1ccc(F)cc1N1C(=O)CC[C@@H]1CO)c(O)c2=O` [Example 128, Pyrimido[2,1-c][1,4]oxazine-2-carboxamide, N-[[4-fluoro-2-[(2R)-2-(hydroxymethyl)-5-oxo-1-pyrrolidinyl]phenyl]methyl]-4,6,7,9-tetrahydro-3-hydroxy-9,9-dimethyl-4-oxo-]: the pIC50 was 7.00 to 8.70.

Consider `CC1(C)OCCn2c1nc(C(=O)NCc1ccc(F)cc1-n1ccnc1)c(O)c2=O` [Example 53, Pyrimido[2,1-c][1,4]oxazine-2-carboxamide, N-[[4-fluoro-2-(1H-imidazol-1-yl)phenyl]methyl]-4,6,7,9-tetrahydro-3-hydroxy-9,9-dimethyl-4-oxo-], for which the pIC50 is 7.00 to 8.70.

In the case of `CC1(C)OCCn2c1nc(C(=O)NCc1cccc(Cl)c1F)c(O)c2=O` [Example 266, Pyrimido[2,1-c][1,4]oxazine-2-carboxamide, N-[(3-chloro-2-fluorophenyl)methyl]-4,6,7,9-tetrahydro-3-hydroxy-9,9-dimethyl-4-oxo-], the pIC50 is 7.00 to 8.70.
